The kinase profiling compilation of Christmann-Franck et al. (2016)

Key:
Experiment in all cases: KINOMEscan competition binding
Settings in all cases: compound 1.0 µM
CAMK2B (human) = CAMK2B (human) (UniProt Q13554)
MAP4K1 (human) = MAP4K1 (human) (UniProt Q92918)
STK38L (human) = STK38L (human) (UniProt Q9Y2H1)
TNIK (human) = TNIK (human) (UniProt Q9UKE5)
BMPR2 (human) = BMPR2 (human) (UniProt Q13873)
RIOK2 (human) = RIOK2 (human) (UniProt Q9BVS4)
MAPK12 (human) = MAPK12 (human) (UniProt P53778)
CLK2 (human) = CLK2 (human) (UniProt P49760)
DYRK1A (human) = DYRK1A (human) (UniProt Q13627)
MAP3K3 (human) = MAP3K3 (human) (UniProt Q99759)
NIM1 (human) = NIM1 (human) (UniProt Q8IY84)
ACVRL1 (human) = ACVRL1 (human) (UniProt P37023)
INSRR (human) = INSRR (human) (UniProt P14616)
BMP2K (human) = BMP2K (human) (UniProt Q9NSY1)
EPHA4 (human) = EPHA4 (human) (UniProt P54764)
DYRK2 (human) = DYRK2 (human) (UniProt Q92630)
MST1R (human) = MST1R (human) (UniProt Q04912)
MST1R (human), sequence (Q04912 whole entry, looked up): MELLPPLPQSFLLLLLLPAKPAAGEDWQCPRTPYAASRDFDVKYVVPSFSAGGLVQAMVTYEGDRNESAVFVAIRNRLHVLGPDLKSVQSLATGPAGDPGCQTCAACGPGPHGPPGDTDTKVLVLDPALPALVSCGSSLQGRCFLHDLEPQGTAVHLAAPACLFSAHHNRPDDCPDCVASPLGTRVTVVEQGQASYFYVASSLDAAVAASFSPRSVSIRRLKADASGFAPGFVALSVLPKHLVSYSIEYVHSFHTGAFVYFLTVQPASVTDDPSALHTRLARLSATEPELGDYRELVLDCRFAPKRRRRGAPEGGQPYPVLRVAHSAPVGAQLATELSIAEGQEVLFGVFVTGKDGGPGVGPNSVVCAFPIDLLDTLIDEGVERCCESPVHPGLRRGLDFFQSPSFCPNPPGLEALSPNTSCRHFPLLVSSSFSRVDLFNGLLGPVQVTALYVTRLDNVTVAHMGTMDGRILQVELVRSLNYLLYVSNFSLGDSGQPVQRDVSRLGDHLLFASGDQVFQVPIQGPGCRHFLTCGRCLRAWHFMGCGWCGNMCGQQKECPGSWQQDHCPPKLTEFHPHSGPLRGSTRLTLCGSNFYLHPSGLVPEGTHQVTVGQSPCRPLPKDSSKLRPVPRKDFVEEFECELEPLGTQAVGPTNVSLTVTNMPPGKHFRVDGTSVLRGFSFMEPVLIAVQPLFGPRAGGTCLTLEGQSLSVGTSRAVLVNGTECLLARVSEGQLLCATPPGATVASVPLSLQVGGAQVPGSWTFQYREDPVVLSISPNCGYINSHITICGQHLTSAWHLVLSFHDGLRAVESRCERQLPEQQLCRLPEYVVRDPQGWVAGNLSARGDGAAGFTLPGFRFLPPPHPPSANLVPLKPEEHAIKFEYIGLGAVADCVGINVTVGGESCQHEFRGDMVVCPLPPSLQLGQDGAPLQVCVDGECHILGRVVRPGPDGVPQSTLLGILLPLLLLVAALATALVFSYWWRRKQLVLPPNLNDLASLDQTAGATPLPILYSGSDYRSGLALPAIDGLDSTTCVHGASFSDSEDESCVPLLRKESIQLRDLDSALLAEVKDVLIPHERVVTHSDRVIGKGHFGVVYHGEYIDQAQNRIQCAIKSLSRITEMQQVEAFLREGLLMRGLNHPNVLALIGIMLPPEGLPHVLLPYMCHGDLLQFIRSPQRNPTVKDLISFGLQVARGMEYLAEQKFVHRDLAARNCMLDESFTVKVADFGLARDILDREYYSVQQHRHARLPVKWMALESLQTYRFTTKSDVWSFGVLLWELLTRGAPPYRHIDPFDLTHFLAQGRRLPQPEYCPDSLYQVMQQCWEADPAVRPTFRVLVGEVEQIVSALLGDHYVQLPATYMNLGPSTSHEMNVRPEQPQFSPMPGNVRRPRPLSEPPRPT

ADCK4 (human) = ADCK4 (human) (UniProt Q96D53)
FLT3 (human) = FLT3 (human) (UniProt P36888)
FLT3 (human), sequence (P36888 whole entry, looked up): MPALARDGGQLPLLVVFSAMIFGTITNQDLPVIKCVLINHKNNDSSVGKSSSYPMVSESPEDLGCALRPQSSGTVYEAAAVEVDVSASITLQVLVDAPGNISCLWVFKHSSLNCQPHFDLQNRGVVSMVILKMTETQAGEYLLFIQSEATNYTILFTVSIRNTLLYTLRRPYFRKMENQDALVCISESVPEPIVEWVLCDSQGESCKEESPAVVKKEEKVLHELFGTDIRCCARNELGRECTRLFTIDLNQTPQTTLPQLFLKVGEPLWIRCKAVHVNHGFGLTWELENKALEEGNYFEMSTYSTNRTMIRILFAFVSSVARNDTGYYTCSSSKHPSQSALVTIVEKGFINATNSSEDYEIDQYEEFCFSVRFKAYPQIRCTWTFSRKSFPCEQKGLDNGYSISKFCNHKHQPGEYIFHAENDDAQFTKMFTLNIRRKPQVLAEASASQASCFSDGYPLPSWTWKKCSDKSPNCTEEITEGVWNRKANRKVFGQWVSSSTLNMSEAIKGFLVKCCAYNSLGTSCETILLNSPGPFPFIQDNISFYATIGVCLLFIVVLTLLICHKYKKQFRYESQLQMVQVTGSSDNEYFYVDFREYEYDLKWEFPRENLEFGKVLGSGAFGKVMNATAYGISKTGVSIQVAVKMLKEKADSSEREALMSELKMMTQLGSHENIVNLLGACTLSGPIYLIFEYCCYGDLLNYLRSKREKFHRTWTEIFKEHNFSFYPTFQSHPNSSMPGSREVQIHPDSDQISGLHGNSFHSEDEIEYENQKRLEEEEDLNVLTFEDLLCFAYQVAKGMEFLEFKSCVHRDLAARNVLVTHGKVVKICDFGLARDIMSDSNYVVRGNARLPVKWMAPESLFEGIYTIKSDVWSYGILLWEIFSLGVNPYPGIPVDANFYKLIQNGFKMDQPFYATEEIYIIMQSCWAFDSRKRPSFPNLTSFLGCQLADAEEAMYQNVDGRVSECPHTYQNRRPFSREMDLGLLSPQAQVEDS

OXSR1 (human) = OXSR1 (human) (UniProt O95747)
CSNK2A1 (human) = CSNK2A1 (human) (UniProt P68400)
CSNK2A1 (human), sequence (P68400 whole entry, looked up): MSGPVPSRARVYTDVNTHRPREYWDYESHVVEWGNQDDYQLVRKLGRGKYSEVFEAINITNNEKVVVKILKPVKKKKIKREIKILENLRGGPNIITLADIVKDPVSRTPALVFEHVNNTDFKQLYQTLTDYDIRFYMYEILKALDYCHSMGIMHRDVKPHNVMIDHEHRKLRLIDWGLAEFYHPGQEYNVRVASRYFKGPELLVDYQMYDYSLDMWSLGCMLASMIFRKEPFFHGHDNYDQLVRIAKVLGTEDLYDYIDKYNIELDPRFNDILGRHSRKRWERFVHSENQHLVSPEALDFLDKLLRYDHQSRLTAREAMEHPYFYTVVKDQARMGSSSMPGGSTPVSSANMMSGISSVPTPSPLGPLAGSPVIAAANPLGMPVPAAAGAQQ

ERBB3 (human) = ERBB3 (human) (UniProt P21860)
AURKB (human) = AURKB (human) (UniProt Q96GD4)
PRKCE (human) = PRKCE (human) (UniProt Q02156)
CIT (human) = CIT (human) (UniProt O14578)
FGFR3 (human) = FGFR3 (human) (UniProt P22607)
MAPK8 (human) = MAPK8 (human) (UniProt P45983)
MAP4K4 (human) = MAP4K4 (human) (UniProt O95819)
MATK (human) = MATK (human) (UniProt P42679)
NEK9 (human) = NEK9 (human) (UniProt Q8TD19)
MAP2K3 (human) = MAP2K3 (human) (UniProt P46734)
MAPKAPK2 (human) = MAPKAPK2 (human) (UniProt P49137)
MAPKAPK2 (human), sequence (P49137 whole entry, looked up): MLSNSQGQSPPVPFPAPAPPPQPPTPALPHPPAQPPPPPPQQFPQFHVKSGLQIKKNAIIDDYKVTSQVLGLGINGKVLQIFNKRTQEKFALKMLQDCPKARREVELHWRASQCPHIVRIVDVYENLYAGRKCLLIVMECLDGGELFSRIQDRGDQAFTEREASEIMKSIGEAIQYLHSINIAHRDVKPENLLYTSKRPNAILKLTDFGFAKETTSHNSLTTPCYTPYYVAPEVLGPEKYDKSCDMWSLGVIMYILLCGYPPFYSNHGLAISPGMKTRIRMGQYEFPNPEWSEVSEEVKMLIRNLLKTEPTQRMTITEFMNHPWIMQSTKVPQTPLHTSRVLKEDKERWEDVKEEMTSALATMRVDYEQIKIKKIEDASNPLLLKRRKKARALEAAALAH

NEK5 (human) = NEK5 (human) (UniProt Q6P3R8)
NEK5 (human), sequence (Q6P3R8 whole entry, looked up): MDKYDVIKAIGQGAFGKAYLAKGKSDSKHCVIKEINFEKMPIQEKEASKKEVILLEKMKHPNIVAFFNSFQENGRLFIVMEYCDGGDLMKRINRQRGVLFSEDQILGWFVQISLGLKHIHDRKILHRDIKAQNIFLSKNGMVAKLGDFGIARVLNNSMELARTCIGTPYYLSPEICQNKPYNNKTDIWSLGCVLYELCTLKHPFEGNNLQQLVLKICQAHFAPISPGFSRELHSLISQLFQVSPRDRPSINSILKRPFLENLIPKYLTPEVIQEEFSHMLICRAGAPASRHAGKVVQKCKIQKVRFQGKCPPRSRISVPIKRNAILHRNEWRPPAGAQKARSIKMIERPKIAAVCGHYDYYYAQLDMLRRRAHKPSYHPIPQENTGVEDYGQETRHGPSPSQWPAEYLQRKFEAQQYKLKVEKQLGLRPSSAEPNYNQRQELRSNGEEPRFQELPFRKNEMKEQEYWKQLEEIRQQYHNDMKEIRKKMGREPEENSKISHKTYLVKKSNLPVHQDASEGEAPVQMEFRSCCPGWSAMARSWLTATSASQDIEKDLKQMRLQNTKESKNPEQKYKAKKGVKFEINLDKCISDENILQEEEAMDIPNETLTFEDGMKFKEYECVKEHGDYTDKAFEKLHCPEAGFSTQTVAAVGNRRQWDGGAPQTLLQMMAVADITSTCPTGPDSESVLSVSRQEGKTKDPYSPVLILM

CAMK4 (human) = CAMK4 (human) (UniProt Q16566)
CAMK4 (human), sequence (Q16566 whole entry, looked up): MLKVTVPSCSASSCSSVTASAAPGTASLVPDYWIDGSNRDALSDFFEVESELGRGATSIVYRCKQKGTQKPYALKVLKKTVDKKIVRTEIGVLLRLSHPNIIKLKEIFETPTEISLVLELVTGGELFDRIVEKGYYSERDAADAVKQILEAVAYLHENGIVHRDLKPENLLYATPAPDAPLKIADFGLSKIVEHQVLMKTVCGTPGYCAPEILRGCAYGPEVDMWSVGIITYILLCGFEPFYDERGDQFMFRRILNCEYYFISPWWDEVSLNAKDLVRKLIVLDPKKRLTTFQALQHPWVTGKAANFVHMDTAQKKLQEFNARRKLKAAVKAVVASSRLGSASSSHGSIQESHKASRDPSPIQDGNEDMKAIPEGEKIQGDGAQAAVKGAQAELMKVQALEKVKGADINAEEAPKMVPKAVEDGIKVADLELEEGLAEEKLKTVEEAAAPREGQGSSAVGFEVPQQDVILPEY

ACVR1 (human) = ACVR1 (human) (UniProt Q04771)
[1] = system: BRAF (human), P15056 [V600E]
BRSK1 (human) = BRSK1 (human) (UniProt Q8TDC3)
MINK1 (human) = MINK1 (human) (UniProt Q8N4C8)
[2] = system: RET (human), P07949 [V804L]
MYLK4 (human) = MYLK4 (human) (UniProt Q86YV6)
MYLK4 (human), sequence (Q86YV6 whole entry, looked up): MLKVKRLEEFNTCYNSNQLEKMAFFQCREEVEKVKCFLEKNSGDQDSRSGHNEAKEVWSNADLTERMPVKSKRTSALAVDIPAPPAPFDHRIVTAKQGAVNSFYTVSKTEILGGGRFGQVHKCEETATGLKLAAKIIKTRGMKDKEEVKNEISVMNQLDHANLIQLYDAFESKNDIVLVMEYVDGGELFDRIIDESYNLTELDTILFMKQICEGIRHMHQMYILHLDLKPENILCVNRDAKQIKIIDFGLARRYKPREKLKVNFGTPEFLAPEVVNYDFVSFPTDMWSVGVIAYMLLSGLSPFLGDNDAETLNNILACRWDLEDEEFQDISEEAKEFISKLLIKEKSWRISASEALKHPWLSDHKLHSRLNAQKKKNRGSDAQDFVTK

- inhibition of binding (CAMK2B (human)): 18%
- inhibition of binding (MAP4K1 (human)): 0%
- inhibition of binding (STK38L (human)): 3%
- inhibition of binding (TNIK (human)): 1%
- inhibition of binding (BMPR2 (human)): 0%
- inhibition of binding (RIOK2 (human)): 0%
- inhibition of binding (MAPK12 (human)): 17%
- inhibition of binding (CLK2 (human)): 0%
- inhibition of binding (DYRK1A (human)): 11%
- inhibition of binding (MAP3K3 (human)): 0%
- inhibition of binding (NIM1 (human)): 0%
- inhibition of binding (ACVRL1 (human)): 38%
- inhibition of binding (INSRR (human)): 0%
- inhibition of binding (BMP2K (human)): 0%
- inhibition of binding (EPHA4 (human)): 2%
- inhibition of binding (DYRK2 (human)): 20%
- inhibition of binding (MST1R (human)): 0%
- inhibition of binding (ADCK4 (human)): 0%
- inhibition of binding (FLT3 (human)): 8%
- inhibition of binding (OXSR1 (human)): 17%
- inhibition of binding (CSNK2A1 (human)): 0%
- inhibition of binding (ERBB3 (human)): 22%
- inhibition of binding (AURKB (human)): 0%
- inhibition of binding (PRKCE (human)): 0%
- inhibition of binding (CIT (human)): 0%
- inhibition of binding (FGFR3 (human)): 7%
- inhibition of binding (MAPK8 (human)): 0%
- inhibition of binding (MAP4K4 (human)): 9%
- inhibition of binding (MATK (human)): 28%
- inhibition of binding (MAP2K3 (human)): 0%
- inhibition of binding (MAPKAPK2 (human)): 0%
- inhibition of binding (NEK5 (human)): 0%
- inhibition of binding (CAMK4 (human)): 50%
- inhibition of binding (ACVR1 (human)): 0%
- inhibition of binding [1]: 17%
- inhibition of binding (BRSK1 (human)): 0%
- inhibition of binding (MINK1 (human)): 0%
- inhibition of binding [2]: 12%
- inhibition of binding (MYLK4 (human)): 0%
Structure (SMILES): Nc1cc(C(F)(F)F)c(-c2cc(N3CCOCC3)nc(N3CCOCC3)n2)cn1
- inhibition of binding (NEK9 (human)): 0%
